Calls of active or inactive are those of the source.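 Rule for the calls: active = fitted curve drops below -35% activity change at a concentration within twice the highest valid tested dose; inactive = activity opposite to the expected direction, or the rest.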

Tested on in the first assay: not listed separately
Kind of assay: TNFa-induced canonical NF-kB eGFP reporter inhibition, dose response, selectivity assay for LMP1 NF-kB inhibitor project, cell-based, flow cytometry, eGFP/dsRED, dry powder (AID 652043). Particulars: HEK293 TNFa-induced NF-kB eGFP reporter, flow cytometry, 16 h; at 18 µM (top of the series).
In the case of `Cc1cc(C(=O)Nc2ccc3c(c2)C(=O)N(C)[C@@H]2CC[C@H](CC(=O)NCc4ccc(-c5ccccc5)cc4)O[C@H]2CO3)no1`, the activity change, negative = inhibition was -3.35% (inactive).

Staying with this assay, now noted: HEK293 TNFa-induced NF-kB eGFP reporter, flow cytometry, 16 h; at 19.5 µM (top of the series).
As for `CN(C)c1ccc2c(c1)[C@@H]1C[C@@H](CC(=O)NC3CCCCC3)O[C@@H](CO)[C@@H]1O2`, the activity change, negative = inhibition was -7.37% (inactive). On the same count and under the same terms, under `CN(C)c1ccc2c(c1)[C@@H]1C[C@@H](CC(=O)NCCc3ccccc3)O[C@@H](CO)[C@@H]1O2` stands -3.65% (inactive); under `CNC(=O)C[C@H]1CC[C@@H]2[C@H](COc3ccc(NC(=O)c4cc(C)on4)cc3C(=O)N2C)O1`, -1.72% (inactive). On the same count and under the same terms, under `CN(C)c1ccc2c(c1)[C@@H]1C[C@@H](CC(=O)NCc3ccncc3)O[C@@H](CO)[C@@H]1O2` stands 0.09% (inactive); under `COCCNC(=O)C[C@@H]1C[C@H]2c3cc(N(C)C)ccc3O[C@H]2[C@H](CO)O1`, -5.65% (inactive); under `CN(C)c1ccc2c(c1)[C@@H]1C[C@@H](CC(=O)NCC3CC3)O[C@@H](CO)[C@@H]1O2`, -0.472% (inactive). The same measure, in the same setting: the figure for `CN(C)c1ccc2c(c1)[C@@H]1C[C@@H](CC(=O)NCc3cccc(F)c3)O[C@@H](CO)[C@@H]1O2` is -9.54% (inactive). For `CN(C)c1ccc2c(c1)[C@@H]1C[C@@H](CC(=O)NCc3ccc(Oc4ccccc4)cc3)O[C@@H](CO)[C@@H]1O2`, the activity change, negative = inhibition was -5.55% (inactive). On the same count and under the same terms, under `CN(C)c1ccc2c(c1)[C@@H]1C[C@@H](CC(=O)NCc3ccc4c(c3)OCO4)O[C@@H](CO)[C@@H]1O2` stands -10.4% (inactive); under `CN(C)c1ccc2c(c1)[C@@H]1C[C@@H](CC(=O)N3CCc4ccccc4C3)O[C@@H](CO)[C@@H]1O2`, -1.46% (inactive); under `CN(C)c1ccc2c(c1)[C@@H]1C[C@@H](CC(=O)NCc3ccccn3)O[C@@H](CO)[C@@H]1O2`, -11.4% (inactive). On the same count and under the same terms, under `COc1ccccc1CNC(=O)C[C@@H]1C[C@H]2c3cc(N(C)C)ccc3O[C@H]2[C@H](CO)O1` stands -11.3% (inactive); under `O=C(C[C@@H]1C[C@H]2c3cc(NS(=O)(=O)c4ccc(F)cc4)ccc3O[C@H]2[C@H](CO)O1)NCc1ccc(Oc2ccccc2)cc1`, -4.18% (inactive); under `COCCNC(=O)C[C@H]1CC[C@@H]2[C@H](COc3ccc(NC(=O)c4cc(C)on4)cc3C(=O)N2C)O1`, -8.48% (inactive). Still for that read-out and setting: the figure for `CCNC(=O)C[C@H]1CC[C@@H]2[C@H](COc3ccc(NC(=O)c4cc(C)on4)cc3C(=O)N2C)O1` is -0.229% (inactive).

`CCCNC(=O)C[C@H]1CC[C@@H]2[C@H](COc3ccc(NC(=O)c4cc(C)on4)cc3C(=O)N2C)O1`: the activity change, negative = inhibition is -2.12% (inactive). Still for that read-out and setting: the figure for `CN1C(=O)c2cc(NS(C)(=O)=O)ccc2OC[C@@H]2O[C@@H](CC(=O)NCc3ccc(-c4ccccc4)cc3)CC[C@H]21` is -0.9% (inactive).

The same assay, now with this note: HEK293 TNFa-induced NF-kB eGFP reporter, flow cytometry, 16 h; at 21 µM (top of the series).
With `Cc1cc(C(=O)Nc2ccc3c(c2)C(=O)N(C)[C@@H]2CC[C@H](CC(=O)N[C@@H](C)c4ccccc4)O[C@H]2CO3)no1`, the activity change, negative = inhibition is -5.47% (inactive). On the same count and under the same terms, under `Cc1cc(C(=O)Nc2ccc3c(c2)C(=O)N(C)[C@@H]2CC[C@H](CC(=O)NCc4ccc(-c5ccccc5)cc4)O[C@@H]2CO3)no1` stands -0.92% (inactive).

For the next assay, the system named is HEK293 TNFa-induced NF-kB eGFP reporter, flow cytometry, 16 h. The assay is described as above.
Conditions: not given
Take `CN(C)c1ccc2c(c1)[C@@H]1C[C@@H](CC(=O)N3CCOCC3)O[C@@H](CO)[C@@H]1O2`: the AC35 was 1.95 µM. Same read-out and setting: under `O=C(C[C@@H]1C[C@H]2c3cc(NC(=O)Nc4ccccc4F)ccc3O[C@H]2[C@H](CO)O1)NCc1ccc(Oc2ccccc2)cc1` stands 16.2 µM; under `CS(=O)(=O)Nc1ccc2c(c1)[C@@H]1C[C@@H](CC(=O)NCc3ccc(Oc4ccccc4)cc3)O[C@@H](CO)[C@@H]1O2`, 0.623 µM; under `CN1C(=O)c2cc(NC(=O)Nc3ccccc3F)ccc2OC[C@@H]2O[C@@H](CC(=O)NCc3ccc(-c4ccccc4)cc3)CC[C@H]21`, 0.161 µM.

In the case of `O=C(Nc1ccc(C(F)(F)F)cc1)Nc1ccc2c(c1)[C@H]1C[C@@H](CC(=O)N3CCc4ccccc4C3)O[C@@H](CO)[C@H]1O2`, the AC35 is 15.8 µM.

For the compound `CN(C)c1ccc2c(c1)[C@@H]1C[C@@H](CC(=O)NCc3cc(F)ccc3F)O[C@@H](CO)[C@@H]1O2`, the AC35 is 1.41 µM. With `O=C(C[C@@H]1C[C@H]2c3cc(NC(=O)NC4CCCC4)ccc3O[C@H]2[C@H](CO)O1)NCc1ccc(Oc2ccccc2)cc1`, the AC35 is 8.04 µM. On the same count and under the same terms, under `O=C(C[C@@H]1C[C@H]2c3cc(NC(=O)C4CCOCC4)ccc3O[C@H]2[C@H](CO)O1)NCc1ccc(Oc2ccccc2)cc1` stands 16.4 µM. Same read-out and setting: the figure for `COc1ccccc1[C@]1(C)ON(c2ccccc2C(F)(F)F)C1=O` is 10.6 µM; for `Cc1cc(C(=O)Nc2ccc3c(c2)C(=O)N(C)[C@@H]2CC[C@H](CC(=O)N[C@H](C)c4ccccc4)O[C@H]2CO3)no1` it is 18.1 µM; for `Nc1ccn([C@@H]2O[C@H](CO)[C@@H](O)C2O)c(=O)n1` (some centres not stated) it is 7.24 µM. On the same count and under the same terms, the figure for `Cc1cc(C(=O)Nc2ccc3c(c2)C(=O)N(C)[C@@H]2CC[C@H](CC(=O)NC4CCCC4)O[C@H]2CO3)no1` is 10 µM.

Values taken from PubChem BioAssay AID652043 (Broad Institute, 2013).
